Assay results from article PMC12608155, “Discovery of Potential Antileishmanial Compounds Through Phenotypic Screening of an Alkaloid Library” (Molecules, 2025).
Like-named read-outs stand apart in the source and are kept apart here.

System: L. donovani IRFP axenic amastigotes
Experiment: Primary single-concentration screening on axenic amastigotes, growth inhibition at 72 h
Type: cell-based, Leishmania donovani
Conditions: axenic amastigotes; for Growth Inhibition (%) at 72h, 1 µM_Exp1 / Growth Inhibition (%) at 72h, 1 µM_Exp2 / inhibition at 1 µM: 1 µM; for Growth Inhibition (%) at 72h, 10 µM_Exp1 / Growth Inhibition (%) at 72h, 10 µM_Exp2 / inhibition at 10 µM: 10 µM; for inhibition at 1 µM / inhibition at 10 µM: Leishmania donovani
[1] = experiment 1, 72 h, read-out: Growth Inhibition (%) at 72h, 1 µM_Exp1
[2] = experiment 2, 72 h, read-out: Growth Inhibition (%) at 72h, 1 µM_Exp2
[3] = experiment 1, 72 h, read-out: Growth Inhibition (%) at 72h, 10 µM_Exp1
[4] = experiment 2, 72 h, read-out: Growth Inhibition (%) at 72h, 10 µM_Exp2

SMILES | Growth Inhibition (%) at 72h, 1 µM_Exp1 (experiment 1, 72 h) [%] | Growth Inhibition (%) at 72h, 1 µM_Exp2 (experiment 2, 72 h) [%] | Growth Inhibition (%) at 72h, 10 µM_Exp1 (experiment 1, 72 h) [%] | Growth Inhibition (%) at 72h, 10 µM_Exp2 (experiment 2, 72 h) [%] | inhibition at 1 µM [1] [%] | inhibition at 1 µM [2] [%] | inhibition at 10 µM [3] [%] | inhibition at 10 µM [4] [%]
CN1c2ccccc2C(=O)N2CCc3c([nH]c4ccccc34)[C@@H]21 (racemic) [(±)-Evodiamine] | 64.72 | 40.81 | 100.52 | 97.39 |  |  |  | 
c1ccc2c(Cc3[nH]c4ccccc4c3Cc3c[nH]c4ccccc34)c[nH]c2c1 [2,3-Bis(3-indolylmethyl) indole] |  |  |  |  | -5.15 | 13.6 | 101 | 100
c1ccc2c(Cc3c[nH]c4ccccc34)c[nH]c2c1 [3,3'-Diindolylmethane] |  |  |  |  | -59.5 | -44.6 | 100 | 95.7
O=C(O)Cc1c[nH]c2ccccc12 [3-Indoleacetic acid] |  |  |  |  | -25.4 | -9.83 | 102 | 101
CCc1c2c(nc3ccccc13)-c1cc3c(c(=O)n1C2)COC(=O)[C@]3(O)CC [7-Ethylcamptothecin] | 70.44 | 77.88 | 96.57 | 91.90 |  |  |  | 
CC[C@@]1(O)C(=O)OCc2c1cc1n(c2=O)Cc2cc3c(N)cccc3nc2-1 [9-Aminocamptothecin] |  |  |  |  | -3.99 | 62 | 74.7 | 89.1
CC[C@@]1(O)C(=O)OCc2c1cc1n(c2=O)Cc2cc3c(OC)cccc3nc2-1 [9-Methoxycamptothecin] | 64.49 | 73.97 | 96.02 | 94.80 |  |  |  | 
CC[C@@]1(O)C(=O)OCc2c1cc1n(c2=O)Cc2cc3cc(OC)ccc3nc2-1 [10-Methoxycamptothecin] | 73.40 | 85.61 | 97.42 | 93.76 |  |  |  | 
CCc1ccc(O)c2cc3c(nc12)-c1cc2c(c(=O)n1C3)COC(=O)[C@]2(O)CC [12-Ethyl-9-hydroxycamptothecin] | 22.17 | 56.54 | 70.30 | 62.49 |  |  |  | 
CC(C)=CC[C@H](O)C1=CC(=O)c2c(O)ccc(O)c2C1=O [(-)-Alkannin] | 100.44 | 100.08 | 99.90 | 99.93 |  |  |  | 
Br.CN1[C@H]2C[C@H](OC(=O)[C@H](CO)c3ccccc3)C[C@@H]1[C@@H](O)C2 [Anisodamine (hydrobromide)] | -15.73 | 4.55 | 80.63 | 11.58 |  |  |  | 
COc1ccc2cc3[n+](cc2c1OC)CCc1cc2c(cc1-3)OCO2.O.[Cl-] [Berberine (chloride hydrate)] | 29.91 | 24.54 | 98.55 | 99.87 |  |  |  | 
